pEC50: −log10 of the molar value.
What was measured:
IL23-p19 = assay: Compound screening using DC cells: LPS-induced IL-23 (p19/p40) ELISA in IFNγ-primed dendritic cells differentiated from human PBMC; format: cell-based; conditions: Dendritic cell, human PBMC-derived dendritic cells, LPS 1 μg/ml, 18 hours, 10 pt
Method: Compound Screening Using DC Cells
Human PBMC cells (400 million) obtained from the vendor were transferred into a T-175 flask containing 15 ml RPMI media (10% FBS) and incubate for 2 hours at 37° C. After 2 hours, the media including floating cells was aspirated out carefully and 12 ml of fresh RPMI media (10% FBS) containing GMCSF (100 ng/ml) and IL4 (20 ng/ml) was added, and the flask was kept in a 37° C. incubator for 7 days.
After 3 days, fresh GMCSF (100 ng/ml) and IL4 (20 ng/ml) were added to the flask and the incubation continued. After 7 days, the fully differentiated cells were harvested by spinning down (1200 rpm/5 min) and aspirating the media. The cells were suspended in fresh RPMI media (10% FBS) containing 50 ng/ml IFNγ (1000 U/ml) and then plated (50K/well in 100 μl) onto a white clear bottom 96 well plate and left in a 37° C. incubator for 24 hours.
After 24 hours incubation, 100 μl of RPMI media was added containing 2× concentrated test compound per well to the above cell-culture media (final concentration becomes 1×) and the plates were pre-incubated for 1 hour at 37° C. before stimulating with LPS.
After 1 hour compound pre-incubation, 10 μl per well of 20× concentrated LPS solution in RPMI media was added to give a final concentration of 1 μg/ml. The mixture was shaken and incubated the plates at 37° C. for an additional 18 hours.
155 μl of the supernatant was harvested from each well carefully (without the tip touching the bottom of the well) and to the remaining 50 μl/well of the cell culture plate was added 50 μl of Cell Titer Glo reagent. The mixture was incubated for 1-2 minutes on a shaker and the plate was read for luminescence intensity to determine the compound cytotoxicity. The cell culture supernatant collected above was used to carry out IL23 ELISA (65 μl—Supernatant) and IL10 ELISA (90 μl—Supernatant) as described below.
Human IL-23 (p19/p40) ELISA Protocol (e-Biosciences)
To 10.5 ml PBS add 50 μl of anti-IL23 (p19) was added capture antibody (2.5 μg/ml). The mixture was mixed well and 100 μl of the coating solution was added to each well of the 96 well white plates from Pierce. The wells were covered and incubated overnight at 4° C.
The anti-IL23 (p19)-antibody-coated plates were washed 2× using TBST (use plate washer) and blocked using 200 μl of 0.5% Casein for 1.5-2 hours at room temperature with shaking.
The plates were washed 2× using TBST and the supernatant was transferred (65 μl/well) to the above pre-blocked/IL23(p19)-antibody-coated 96 well plate, and incubated at room temperature for 1.5 hours with shaking.
The plates were washed 4× using TBST (plate washer) and 100 μl/well detection antibody solution prepared from 2 μl of biotin labeled anti-IL-12 (p40/p70) antibody in 11 ml 1% BSA/PBS solution (I-5000 dilution) was added. The plates were incubated for 1 hour with shaking at Room temperature.
Again, the plates were washed 4× with TBST and 100 μl of HRP labeled Streptavidin (R&D Systems) solution (10 μl/10 ml 1% BSA solution) was added, and the plates were incubated at room temperature for another 45 minutes with shaking.
After 45 minutes, the plates were washed with TBST 4× and 100 ul/well Super Signal ELISA Pico Chemiluminescent Substrate from Pierce (3.5 ml A+3.5 ml B+3.5 ml MQ water) was added. The plates were shaken for 1-2 minutes then read on a plate reader.

IL23p19 = assay: LPS Induced IL23p19 in THP-1 Cells (with IFNγ Primed) Assay; format: cell-based; conditions: Homo sapiens, IFNγ primed (50 ng/mL), LPS 1 ug/mL, 18 hours, 10 pt, read-out: IL23-p19 ELISA, THP1-IFNy, LPS, 10 pt EC50
Excerpt: LPS Induced IL23p19 in THP-1 Cells (with IFNγ Primed) Assay
THP-1 Cells (ATCC, Cat # TIB-202), Dimethyl Sulfoxide (DMSO) (Sigma-Aldrich, Cat # D2650), RPMI 1640 (Cellgro, Cat #10-040-CM), Fetal Bovine Serum (Sigma, Cat # F4135), Albumin From Bovine Serum (BSA) (Sigma-Aldrich, Cat # A7906), LPS (Serotype K-235, Sigma, Product Number L 2143), IFNγ (Peprotech, Cat #300-02)
Capture antibody: Human IL-23p19 ELISA (e-Bioscience, Cat. #14-7238-85),
Detection antibody: Primary Mouse Biotinylated anti-human IL-12(p40/p70) (e-Bioscience, Cat. #13-7129-85), Secondary HRP-conjugated Streptavidin (R&D Systems, Cat # DY998), 1×PBST Washing Buffer (PBS-Tween tablet) (VWR International, Cat #80058-558), ELISA Blocking Buffer (PBS with 1% BSA), ELISA Dilution Buffer (PBS with 1% BSA), 384 Well Flat-Bottom, MaxiSorp Black Immuno Plates (Thermo Scientific, Cat #12-565-346), 384 Well Flat-Bottom, White Tissue Culture Plates (Thermo Scientific, Cat #12-565-343), Super Signal ELISA Pico Chemiluminescent Substrate (Thermo Scientific, Cat #37070), Cell Titer Glo reagent (Promega, Cat # G7573), Positive control, IKK2VI inhibitor (Calbiochem, Cat #401483), AquaMax 4000 plate washer (Molecular Devices), Luminometer, Wallac Victor2 1420 Multilabel Counter. Method THP-1 Cells Stimulation:
On day 1, 50K/well THP-1 cells were seeded and primed with IFNγ (50 ng/mL) in 384-well plates for about 18 hours in RPMI media with 10% FBS. On day 2, the compound was serially diluted in DMSO from 5 mM in 3-fold dilutions, and then diluted 1:125 in RPMI media with 10% FBS. 50 μL/well 2× compound was added to 50 μL/well THP-1 cells (with IFNγ primed) in duplicate in 384 well tissue culture plates. The cells were pre-incubated with compound for 1 hour at 37° C., 5% CO2 before addition of 10 μL/well 11×LPS to give a final concentration of 1 ug/mL LPS. Day 3, after stimulation for 18 hours at 37° C., 5% CO2, the assay plate was centrifuged and 70 μL/well supernatant was harvested. IL-23p19 protein in 70 μL/well of supernatant was measured by sandwich ELISA, and 25 μl/well Cell Titer Glo reagent was added to the remaining cells to measure compound toxicity.
Human IL-23p19 Sandwich ELISA:
Maxisorp immuno ELISA plates were pre-coated with 25 μL/well of anti-IL-23p19 capture antibody (2.5 ug/mL) in PBS overnight at room temperature. After washing with 1×PBST, the plates were blocked using 100 μL/well of 1% BSA in PBS for 2 hours at room temperature. The plates were washed three times with 1×PBST and 70 μL/well supernatant were added. The plates were incubated at room temperature for 2 hours with shaking and washed three times with 1×PBST. 25 μL/well of biotin labeled anti-IL-12(p40/p70) detection antibody (100 ng/mL) in PBS with 1% BSA was added and the plates were incubated at room temperature for 2 hours with shaking. After washing three times with 1×PBST, 25 μL/well of streptavidin-HRP (1:200) in PBS with 1% BSA was added and the plates were incubated at room temperature for 20 minutes with shaking. The plates were washed three times with 1×PBST and 25 μL/well of Super Signal ELISA Pico Chemiluminescent Substrate were added. The plates were read with a luminometer, and the chemiluminescence values were entered into Athena (Rigel) for curve fitting, EC50 calculation, and database storage.

Compound | pEC50 (IL23-p19) | pEC50 (IL23p19)
COCCN(C)c1nc2cc(N3CCCCC3)c(NC(=O)c3csc(-c4cn[nH]c4)n3)cc2o1 [Compound I-51, N-(2-((2-methoxyethyl)(methyl)amino)-5-(piperidin-1-yl)benzo[d]oxazol-6-yl)-2-(1H-pyrazol-4-yl)thiazole-4-carboxamide] | 7.39 | 7.13
Nc1ccc(-c2nc(C(=O)Nc3cc4oc(N5CCOCC5)nc4cc3N3CCCCC3)cs2)cn1 [Compound I-11, 2-(6-aminopyridin-3-yl)-N-(2-morpholino-5-(piperidin-1-yl)benzo[d]oxazol-6-yl)thiazole-4-carboxamide] | – | 3.64
O=C(Nc1cc2oc(N3CCOCC3)nc2cc1N1CCCCC1)c1ccc(-c2cn[nH]c2)o1 [Compound I-3, N-(2-morpholino-5-(piperidin-1-yl)benzo[d]oxazol-6-yl)-5-(1H-pyrazol-4-yl)furan-2-carboxamide] | 7.41 | 7.50
Cc1cc(-c2nc(C(=O)Nc3cc4oc(N5CCOCC5)nc4cc3N3CCC(F)(F)CC3)cs2)ccn1 [Compound I-30, N-(5-(4,4-difluoropiperidin-1-yl)-2-morpholinobenzo[d]oxazol-6-yl)-2-(2-methylpyridin-4-yl)thiazole-4-carboxamide] | – | 4.36
CN1CCN(c2nc3cc(N4CCCCC4)c(NC(=O)c4csc(-c5cn[nH]c5)n4)cc3o2)CC1 [Compound I-20, N-(2-(4-methylpiperazin-1-yl)-5-(piperidin-1-yl)benzo[d]oxazol-6-yl)-2-(1H-pyrazol-4-yl)thiazole-4-carboxamide] | 7.74 | 7.65
O=C(Nc1cc2oc(N3CCOCC3)nc2cc1N1CCC(F)(F)CC1)c1ccc(-c2cn[nH]c2)o1 [Compound I-27, N-(5-(4,4-difluoropiperidin-1-yl)-2-morpholinobenzo[d]oxazol-6-yl)-5-(1H-pyrazol-4-yl)furan-2-carboxamide] | 6.13 | 6.28
CN1CCN(c2nc3cc(N4CCCCC4)c(NC(=O)c4ccc(-c5ccc(N)nc5)o4)cc3o2)CC1 [Compound I-15, 5-(6-aminopyridin-3-yl)-N-(2-(4-methylpiperazin-1-yl)-5-(piperidin-1-yl)benzo[d]oxazol-6-yl)furan-2-carboxamide] | 5.77 | 4.14
O=C(Nc1cc2sc(N3CCOCC3)nc2cc1N1CCCCC1)c1ccc(-c2cn[nH]c2)o1 [Compound I-7, N-(2-morpholino-5-(piperidin-1-yl)benzo[d]thiazol-6-yl)-5-(1H-pyrazol-4-yl)furan-2-carboxamide] | 7.87 | 7.59
Cc1cc(-c2ccc(C(=O)Nc3cc4oc(N5CCCCC5)nc4cc3N3CCCCC3)o2)ccn1 [Compound I-33, N-(2,5-di(piperidin-1-yl)benzo[d]oxazol-6-yl)-5-(2-methylpyridin-4-yl)furan-2-carboxamide] | – | 2.35
Cc1cc(-c2nc(C(=O)Nc3cc4oc(N5CCOCC5)nc4cc3N3CCC(F)CC3)cs2)ccn1 [Compound I-26, N-(5-(4-fluoropiperidin-1-yl)-2-morpholinobenzo[d]oxazol-6-yl)-2-(2-methylpyridin-4-yl)thiazole-4-carboxamide] | – | 5.93
O=C(Nc1cc2sc(N3CCOCC3)nc2cc1N1CCCCC1)c1ccc(-c2cc[nH]n2)o1 [Compound I-8, N-(2-morpholino-5-(piperidin-1-yl)benzo[d]thiazol-6-yl)-5-(1H-pyrazol-3-yl)furan-2-carboxamide] | – | 6.21

More lines, now with the values ahead:

pEC50 (IL23-p19) | pEC50 (IL23p19) | Compound
7.70 | 7.27 | O=C(Nc1cc2oc(N3CCOCC3)nc2cc1N1CCCCC1)c1csc(-c2cn[nH]c2)n1 [Compound I-12, N-(2-morpholino-5-(piperidin-1-yl)benzo[d]oxazol-6-yl)-2-(1H-pyrazol-4-yl)thiazole-4-carboxamide]
4.62 | 5.75 | O=C(Nc1cc2oc(N3CCCCC3)nc2cc1N1CCCCC1)c1ccc(-c2cc[nH]n2)o1 [Compound I-32, N-(2,5-di(piperidin-1-yl)benzo[d]oxazol-6-yl)-5-(1H-pyrazol-3-yl)furan-2-carboxamide]
– | 4.64 | Cc1cc(-c2nc(C(=O)Nc3cc4oc(N5CCCCC5)nc4cc3N3CCCCC3)cs2)ccn1 [Compound I-37, N-(2,5-di(piperidin-1-yl)benzo[d]oxazol-6-yl)-2-(2-methylpyridin-4-yl)thiazole-4-carboxamide]
– | 5.08 | Nc1ccc(-c2nc(C(=O)Nc3cc4oc(N5CCCCC5)nc4cc3N3CCCCC3)cs2)cn1 [Compound I-34, 2-(6-aminopyridin-3-yl)-N-(2,5-di(piperidin-1-yl)benzo[d]oxazol-6-yl)thiazole-4-carboxamide]
– | 5.28 | O=C(Nc1cc2oc(N3CCCCC3)nc2cc1N1CCCCC1)c1csc(-c2cc[nH]n2)n1 [Compound I-36, N-(2,5-di(piperidin-1-yl)benzo[d]oxazol-6-yl)-2-(1H-pyrazol-3-yl)thiazole-4-carboxamide]
– | 5.53 | O=C(Nc1cc2oc(N3CCOCC3)nc2cc1N1CCCCC1)c1csc(-c2cc[nH]n2)n1 [Compound I-13, N-(2-morpholino-5-(piperidin-1-yl)benzo[d]oxazol-6-yl)-2-(1H-pyrazol-3-yl)thiazole-4-carboxamide]

— patent publication US10774076B2, “Benzazole compounds and methods for making and using the compounds” (Rigel Pharmaceuticals, Inc., priority 2015, dated 2020)
